Assay results taken from ChEMBL document CHEMBL1146289, “1,5-Biaryl pyrrole derivatives as EP1 receptor antagonists: Structure-activity relationships of 4- and 5-substituted benzoic acid derivatives” (Bioorg Med Chem Lett, 2007).

Legend:
[1] = target: T1, Prostaglandin E2 receptor EP1 subtype (Homo sapiens, UniProt P34995); experiment: Displacement of [3H]PGE2 from human recombinant EP1 receptor expressed in CHO cell membranes
T1 sequence (P34995 whole entry): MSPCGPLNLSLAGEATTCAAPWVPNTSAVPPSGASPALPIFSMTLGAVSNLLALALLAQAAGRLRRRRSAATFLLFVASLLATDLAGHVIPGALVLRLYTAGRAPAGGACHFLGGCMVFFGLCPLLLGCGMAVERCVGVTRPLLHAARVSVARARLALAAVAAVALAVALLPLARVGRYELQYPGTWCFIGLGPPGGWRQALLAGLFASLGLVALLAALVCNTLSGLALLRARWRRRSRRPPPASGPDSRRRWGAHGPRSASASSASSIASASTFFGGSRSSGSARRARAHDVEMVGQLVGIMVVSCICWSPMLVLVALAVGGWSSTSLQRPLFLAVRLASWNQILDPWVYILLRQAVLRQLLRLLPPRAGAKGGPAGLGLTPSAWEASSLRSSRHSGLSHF

[2] = Tmax in rat at 3 mg/kg, po; assay type: ADME, organism-based; parameters: dose 3 mg/kg, route oral; conditions: in vivo
[3] = Cmax in rat at 3 mg/kg, po; assay type: ADME, organism-based; parameters: dose 3 mg/kg, route oral; conditions: in vivo
Rattus norvegicus [4] = experiment: AUC (0-t) in rat at 3 mg/kg, po; assay type: ADME, organism-based, Plasma; parameters: dose 3 mg/kg, route oral; conditions: in vivo
Cytochrome P450 2D6 = Cytochrome P450 2D6 (Homo sapiens, UniProt P10635); experiment: Inhibition of CYP2D6; assay type: ADME
Cytochrome P450 2C9 = Cytochrome P450 2C9 (Homo sapiens, UniProt P11712); experiment: Inhibition of CYP2C9; assay type: ADME
[5] = target: T1, Prostaglandin E2 receptor EP1 subtype; experiment: Inhibition of EP1 receptor expressed in CHO cells assessed as calcium mobilization by FLIPR assay; assay type: functional, cell-based
[6] = target: T2, Thromboxane A2 receptor (Homo sapiens) (UniProt P21731)
T2 sequence (whole entry): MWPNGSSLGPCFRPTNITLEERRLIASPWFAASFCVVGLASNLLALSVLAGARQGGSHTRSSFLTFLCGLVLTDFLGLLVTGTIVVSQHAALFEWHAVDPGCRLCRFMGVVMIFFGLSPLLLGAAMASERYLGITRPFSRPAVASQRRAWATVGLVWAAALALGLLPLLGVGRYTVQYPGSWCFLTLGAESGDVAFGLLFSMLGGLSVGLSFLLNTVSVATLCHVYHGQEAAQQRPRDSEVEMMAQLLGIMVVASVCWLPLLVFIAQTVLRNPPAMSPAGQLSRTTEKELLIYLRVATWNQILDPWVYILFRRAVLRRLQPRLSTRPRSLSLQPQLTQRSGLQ

[7] = target: T3, Prostaglandin E2 receptor EP3 subtype (Homo sapiens, UniProt P43115); experiment: Inhibition of EP3 receptor expressed in CHO cells assessed as calcium mobilization by FLIPR assay; assay type: functional, cell-based
T3 sequence (P43115 whole entry): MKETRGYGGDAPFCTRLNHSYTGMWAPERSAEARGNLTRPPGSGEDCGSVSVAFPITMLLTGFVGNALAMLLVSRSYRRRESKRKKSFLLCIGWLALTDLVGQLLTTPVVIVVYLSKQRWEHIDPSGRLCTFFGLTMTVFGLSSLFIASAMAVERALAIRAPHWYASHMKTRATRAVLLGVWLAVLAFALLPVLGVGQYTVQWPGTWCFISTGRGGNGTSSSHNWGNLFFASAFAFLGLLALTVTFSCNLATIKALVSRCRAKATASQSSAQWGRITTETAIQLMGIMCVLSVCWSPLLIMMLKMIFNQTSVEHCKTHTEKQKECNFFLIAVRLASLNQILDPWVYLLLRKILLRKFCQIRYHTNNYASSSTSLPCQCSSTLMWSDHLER

Rattus norvegicus [8] = organism: Rattus norvegicus; experiment: Reversal of hypersensitivity in rat FCA model of inflammatory pain; assay type: functional
Rattus norvegicus [9] = experiment: Reversal of hypersensitivity in rat FCA model of inflammatory pain at 5 mg/kg, po; assay type: functional
Cytochrome P450 1A2 = target: T4, Cytochrome P450 1A2 (Homo sapiens, UniProt P05177); experiment: Inhibition of CYP1A2; assay type: ADME
T4 sequence (P05177 whole entry): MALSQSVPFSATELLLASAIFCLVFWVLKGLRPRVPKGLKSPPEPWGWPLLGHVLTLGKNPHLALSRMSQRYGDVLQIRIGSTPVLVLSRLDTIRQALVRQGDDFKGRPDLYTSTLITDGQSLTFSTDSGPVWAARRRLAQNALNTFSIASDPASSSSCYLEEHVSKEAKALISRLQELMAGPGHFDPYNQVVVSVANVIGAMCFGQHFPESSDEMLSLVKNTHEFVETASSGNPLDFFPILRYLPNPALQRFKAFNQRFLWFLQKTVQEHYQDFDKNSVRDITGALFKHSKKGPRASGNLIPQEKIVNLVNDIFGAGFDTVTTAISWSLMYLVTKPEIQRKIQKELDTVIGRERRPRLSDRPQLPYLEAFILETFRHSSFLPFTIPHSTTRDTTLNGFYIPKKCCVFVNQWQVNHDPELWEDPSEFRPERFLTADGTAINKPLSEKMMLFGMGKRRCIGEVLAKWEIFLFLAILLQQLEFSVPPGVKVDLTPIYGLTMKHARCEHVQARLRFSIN

Cytochrome P450 3A4 = Cytochrome P450 3A4 (Homo sapiens, UniProt P08684); experiment: Inhibition of CYP3A4; assay type: ADME
Thromboxane A2 receptor = target: T5, Thromboxane A2 receptor (Homo sapiens, UniProt P21731); experiment: Inhibition of TP receptor
T5 sequence (P21731 whole entry): T2 sequence (whole entry)

[10] = target: Prostaglandin E2 receptor EP4 subtype (Homo sapiens, UniProt P35408); experiment: Inhibition of EP4 receptor
Cytochrome P450 2C19 = Cytochrome P450 2C19 (Homo sapiens, UniProt P33261); experiment: Inhibition of CYP2C19; assay type: ADME
Chain of Cytochrome P450 2C19 (P33261 whole entry): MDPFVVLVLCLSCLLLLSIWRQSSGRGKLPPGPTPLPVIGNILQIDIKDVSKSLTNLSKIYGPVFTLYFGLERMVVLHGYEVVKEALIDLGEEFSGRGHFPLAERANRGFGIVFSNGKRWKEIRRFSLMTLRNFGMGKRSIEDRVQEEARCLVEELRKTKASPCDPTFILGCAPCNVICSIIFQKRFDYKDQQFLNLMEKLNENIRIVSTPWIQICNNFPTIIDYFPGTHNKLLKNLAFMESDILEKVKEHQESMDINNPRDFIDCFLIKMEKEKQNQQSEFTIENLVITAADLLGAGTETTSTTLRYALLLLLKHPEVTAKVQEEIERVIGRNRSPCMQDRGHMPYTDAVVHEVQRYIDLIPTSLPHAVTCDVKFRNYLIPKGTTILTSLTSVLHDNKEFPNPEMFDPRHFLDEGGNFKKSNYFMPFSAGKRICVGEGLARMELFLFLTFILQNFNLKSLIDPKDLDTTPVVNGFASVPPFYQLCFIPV

Chain of Prostaglandin E2 receptor EP4 subtype (P35408 whole entry): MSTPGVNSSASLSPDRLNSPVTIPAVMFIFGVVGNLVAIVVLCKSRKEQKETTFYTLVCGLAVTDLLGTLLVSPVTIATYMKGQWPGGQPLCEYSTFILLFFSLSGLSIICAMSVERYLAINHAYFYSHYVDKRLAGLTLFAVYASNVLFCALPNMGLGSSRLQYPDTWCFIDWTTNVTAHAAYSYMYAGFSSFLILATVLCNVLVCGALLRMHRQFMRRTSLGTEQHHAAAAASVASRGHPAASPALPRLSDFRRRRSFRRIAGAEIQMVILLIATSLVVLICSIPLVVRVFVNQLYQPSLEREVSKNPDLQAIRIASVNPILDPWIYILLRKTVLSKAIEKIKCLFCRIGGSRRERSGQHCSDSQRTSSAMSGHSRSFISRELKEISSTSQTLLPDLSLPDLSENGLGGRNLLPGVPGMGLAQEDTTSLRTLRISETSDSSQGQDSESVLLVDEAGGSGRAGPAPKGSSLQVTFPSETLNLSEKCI
Chain of Cytochrome P450 2C9 (P11712 whole entry): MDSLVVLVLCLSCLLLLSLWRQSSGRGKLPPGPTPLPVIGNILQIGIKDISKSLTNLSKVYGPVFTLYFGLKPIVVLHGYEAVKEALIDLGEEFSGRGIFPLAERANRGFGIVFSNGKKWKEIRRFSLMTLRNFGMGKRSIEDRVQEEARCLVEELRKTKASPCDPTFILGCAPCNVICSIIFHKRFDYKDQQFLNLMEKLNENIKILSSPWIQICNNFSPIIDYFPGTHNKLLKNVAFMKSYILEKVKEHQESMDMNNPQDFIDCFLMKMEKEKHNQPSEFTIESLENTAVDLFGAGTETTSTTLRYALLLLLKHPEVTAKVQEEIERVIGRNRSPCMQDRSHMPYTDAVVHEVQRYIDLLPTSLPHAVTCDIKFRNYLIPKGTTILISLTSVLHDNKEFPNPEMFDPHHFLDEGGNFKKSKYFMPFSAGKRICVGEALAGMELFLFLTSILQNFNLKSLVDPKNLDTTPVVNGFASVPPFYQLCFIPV
Chain of Cytochrome P450 2D6 (P10635 whole entry): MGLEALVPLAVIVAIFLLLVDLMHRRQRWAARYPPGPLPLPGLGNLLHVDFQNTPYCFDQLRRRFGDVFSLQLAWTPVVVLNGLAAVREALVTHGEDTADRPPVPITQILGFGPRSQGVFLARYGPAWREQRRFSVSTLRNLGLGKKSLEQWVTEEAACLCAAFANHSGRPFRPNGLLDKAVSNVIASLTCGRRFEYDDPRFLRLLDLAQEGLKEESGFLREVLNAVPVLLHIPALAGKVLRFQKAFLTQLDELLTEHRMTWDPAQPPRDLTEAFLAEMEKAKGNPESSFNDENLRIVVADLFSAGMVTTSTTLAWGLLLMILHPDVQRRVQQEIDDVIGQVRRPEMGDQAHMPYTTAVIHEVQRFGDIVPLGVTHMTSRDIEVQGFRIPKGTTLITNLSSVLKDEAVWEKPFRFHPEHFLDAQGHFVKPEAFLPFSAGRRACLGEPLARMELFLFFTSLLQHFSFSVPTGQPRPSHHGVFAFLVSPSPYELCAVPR
Chain of Cytochrome P450 3A4 (P08684 whole entry): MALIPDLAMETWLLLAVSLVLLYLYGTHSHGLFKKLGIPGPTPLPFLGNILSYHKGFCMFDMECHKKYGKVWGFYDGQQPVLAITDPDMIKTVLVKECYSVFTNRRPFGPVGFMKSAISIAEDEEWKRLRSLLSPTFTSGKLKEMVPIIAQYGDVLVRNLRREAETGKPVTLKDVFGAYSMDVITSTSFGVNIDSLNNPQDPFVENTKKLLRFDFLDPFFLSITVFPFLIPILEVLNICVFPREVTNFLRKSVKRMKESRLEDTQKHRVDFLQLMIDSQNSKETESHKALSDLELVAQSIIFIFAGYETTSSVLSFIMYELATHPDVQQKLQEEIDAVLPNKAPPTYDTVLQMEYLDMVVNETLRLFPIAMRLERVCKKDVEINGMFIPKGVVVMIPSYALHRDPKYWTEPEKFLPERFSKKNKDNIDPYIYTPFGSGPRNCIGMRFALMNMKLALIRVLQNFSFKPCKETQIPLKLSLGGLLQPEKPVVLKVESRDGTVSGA

`CC(=O)Nc1cc(C(=O)O)cc(-n2c(C)ccc2-c2cc(Br)ccc2OCc2ccc(F)cc2)c1` gave an IC50 [1] of 0.794 nM.
`Cc1ccc(-c2cc(Cl)ccc2OCc2ccccc2)n1-c1cc(Br)cc(C(=O)O)c1` gave an IC50 [1] of 5.01 nM, a Tmax [2] of 30 min and a Cmax [3] of 310 nM. The AUC (Rattus norvegicus [4]) was 6 kg·min/L.
`Cc1ccc(-c2cc(Cl)ccc2OCc2ccc(F)cc2F)n1-c1cc(C(=O)O)ccc1F` gave an IC50 [1] of 6.31 nM, a Tmax [2] of 30 min and a Cmax [3] of 230 nM. For the same molecule, the AUC (Rattus norvegicus [4]) was 4 kg·min/L.
With `Cc1ccc(-c2cc(Cl)ccc2OCc2ccc(F)cc2)n1-c1cc(C(=O)O)ccc1Cl` the IC50 [1] was 316 nM.
With `Cc1ccc(-c2cc(Br)ccc2OCc2ccc(F)cc2F)n1-c1cc(Cl)cc(C(=O)O)c1` the IC50 [1] was 3.98 nM.
`CC(=O)Nc1cc(C(=O)O)cc(-n2c(C)ccc2-c2cc(Br)ccc2OCc2ccc(F)cc2F)c1` gave an IC50 (Cytochrome P450 2D6) of no less than 18000 nM, an IC50 (Cytochrome P450 2C9) of no less than 18000 nM and a Ki [5] of 0.1 nM. The IC50 [1] was 0.398 nM, the pKb [6] was 9 and the Ki [7] was 501 nM. It also gave an ED50 (Rattus norvegicus [8]) of 1.1 mg/kg, an Activity (Rattus norvegicus [9]) of 72% and an IC50 (Cytochrome P450 1A2) of no less than 18000 nM. For the same molecule, the Tmax [2] was 30 min, the IC50 (Cytochrome P450 3A4) was no less than 18000 nM and the Cmax [3] was 1410 nM. The IC50 (Thromboxane A2 receptor) was 2.51 nM, the IC50 [10] was 158 nM and the AUC (Rattus norvegicus [4]) was 21 kg·min/L. It also gave an IC50 (Cytochrome P450 2C19) of no less than 18000 nM.
Work on `CCOc1ccc(C(=O)O)cc1-n1c(C)ccc1-c1cc(Cl)ccc1OCc1ccccc1` yielded an IC50 [1] of 126 nM.
`CC(=O)Nc1cc(C(=O)O)cc(-n2c(C)ccc2-c2cc(Cl)ccc2OCc2ccc(F)cc2)c1` gave an IC50 [1] of 2.51 nM, an Activity (Rattus norvegicus [9]) of 94% and a Tmax [2] of 30 min. It also gave a Cmax [3] of 2080 nM and an AUC (Rattus norvegicus [4]) of 20 kg·min/L.
In the case of `Cc1ccc(-c2cc(Br)ccc2OCc2ccc(F)cc2F)n1-c1cc(C(=O)O)cc(C(F)(F)F)c1`, the IC50 [1] is reported as 12.6 nM.
Molecule `Cc1ccc(-c2cc(Br)ccc2OCc2ccc(F)cc2F)n1-c1cc(C(=O)O)cc(N2CCCCC2=O)c1` has an IC50 [1] of 1.26 nM.
Work on `Cc1ccc(-c2cc(Br)ccc2OCc2ccccc2)n1-c1cc(N)cc(C(=O)O)c1` yielded an IC50 [1] of 3.16 nM.
Work on `COC(=O)Nc1cc(C(=O)O)cc(-n2c(C)ccc2-c2cc(Cl)ccc2OCc2ccccc2)c1` yielded an IC50 [1] of 5.01 nM.
`Cc1ccc(-c2cc(Cl)ccc2OCc2ccc(F)cc2F)n1-c1cc(Br)cc(C(=O)O)c1` showed an IC50 [1] of 5.01 nM.
`Cc1ccc(-c2cc(Br)ccc2OCc2ccc(F)cc2F)n1-c1cc(N)cc(C(=O)O)c1` showed an IC50 [1] of 0.501 nM, a Tmax [2] of 30 min and a Cmax [3] of 50 nM. For the same molecule, the AUC (Rattus norvegicus [4]) was less than 1 kg·min/L.
Molecule `Cc1ccc(-c2cc(C(F)(F)F)ccc2OCc2ccccc2)n1-c1cc(C(=O)O)ccc1F` has an IC50 [1] of 6.31 nM.
Work on `CC(=O)Nc1cc(C(=O)O)cc(-n2c(C)ccc2-c2cc(C(F)(F)F)ccc2OCc2ccccc2)c1` yielded an IC50 [1] of 1.26 nM, a Tmax [2] of 42 min and a Cmax [3] of 20 nM.
`CC(=O)Nc1cc(C(=O)O)cc(-n2c(C)ccc2-c2cc(Br)ccc2OCc2ccccc2)c1` gave an IC50 [1] of 1.26 nM.
For `Cc1ccc(-c2cc(Cl)ccc2OCc2ccc(F)cc2F)n1-c1cc(C(=O)O)ccc1Cl`, the IC50 [1] was 158 nM.
`CC(=O)Nc1cc(C(=O)O)cc(-n2c(C)ccc2-c2cc(I)ccc2OCc2ccc(F)cc2F)c1` gave an IC50 [1] of 1.58 nM.
`Cc1ccc(-c2cc(Br)ccc2OCc2ccc(F)cc2F)n1-c1cc(C(=O)O)cc(N2CCCC2=O)c1` showed an IC50 [1] of 2 nM.
Work on `Cc1ccc(-c2cc(Cl)ccc2OCc2ccc(F)cc2F)n1-c1cc(C(=O)O)cc(C(F)(F)F)c1` yielded an IC50 [1] of 10 nM.
With `Cc1ccc(-c2cc(Cl)ccc2OCc2ccccc2)n1-c1cc(C(=O)O)cc(N2CCCS2(=O)=O)c1` the IC50 [1] was 5.01 nM.
For `Cc1ccc(-c2cc(C(F)(F)F)ccc2OCc2ccc(F)cc2)n1-c1cc(C(=O)O)cc(N2CCCS2(=O)=O)c1`, the IC50 [1] was 7.94 nM.
`CC(=O)N(C)c1cc(C(=O)O)cc(-n2c(C)ccc2-c2cc(Br)ccc2OCc2ccc(F)cc2F)c1` showed an IC50 [1] of 1.26 nM.
Molecule `CC(=O)Nc1cc(C(=O)O)cc(-n2c(C)ccc2-c2cc(Cl)ccc2OCc2ccccc2)c1` has an IC50 [1] of 2 nM, a Tmax [2] of 30 min and a Cmax [3] of 580 nM. For the same molecule, the AUC (Rattus norvegicus [4]) was 8 kg·min/L.
With `COc1ccc(C(=O)O)cc1-n1c(C)ccc1-c1cc(Cl)ccc1OCc1ccccc1` the IC50 [1] was 251 nM.
For `CC(=O)Nc1cc(C(=O)O)cc(-n2c(C)ccc2-c2cc(F)ccc2OCc2ccc(F)cc2)c1`, the IC50 [1] was 3.98 nM, the Activity (Rattus norvegicus [9]) was 55% and the Tmax [2] was 30 min. It also gave a Cmax [3] of 2950 nM and an AUC (Rattus norvegicus [4]) of 60 kg·min/L.
In the case of `Cc1ccc(-c2cc(Cl)ccc2OCc2ccccc2)n1-c1cc(N)cc(C(=O)O)c1`, the IC50 [1] is reported as 3.98 nM.
Molecule `Cc1ccc(-c2cc(Br)ccc2OCc2ccc(F)cc2)n1-c1cc(C(=O)O)ccc1F` has an IC50 [1] of 6.31 nM, a Tmax [2] of 30 min and a Cmax [3] of 230 nM. The AUC (Rattus norvegicus [4]) was 6 kg·min/L.
`Cc1ccc(-c2cc(Cl)ccc2OCc2ccc(F)cc2)n1-c1cc(NS(C)(=O)=O)cc(C(=O)O)c1` showed an IC50 [1] of 1.58 nM.
Work on `Cc1ccc(-c2cc(Cl)ccc2OCc2ccc(F)cc2F)n1-c1cc(Cl)cc(C(=O)O)c1` yielded an IC50 [1] of 3.98 nM.
